Assay results published in ChEMBL document CHEMBL5543140 (J Med Chem, 2024).
Activity calls are given as the source filed them. The rule behind the calls is not given here.

Experiments:
[1] = molecular target: 5-hydroxytryptamine receptor 2A (Homo sapiens, UniProt P28223); test: Displacement of [3H]LSD from human 5-HT2A receptor expressed in HEK293 cell membrane incubated for 90 mins by microbeta liquid scintillation counting method; type: cell membranes
[2] = molecular target: 5-hydroxytryptamine receptor 2B (Homo sapiens, UniProt P41595); test: Displacement of [3H]LSD from human 5-HT2B receptor expressed in HEK293 cell membrane incubated for 90 mins by microbeta liquid scintillation counting method; type: cell membranes
Mus musculus [3] = test: Psychedelic effect in C57BL/6J mouse assessed as number of head-twitch responses by visual observation at 3 mg/kg, po measured for 3 mins at 160 to 170 min; type: functional; conditions: 0.05 h
[4] = molecular target: 5-hydroxytryptamine receptor 1B (Homo sapiens, UniProt P28222); test: Displacement of [3H]GR125743 from 5-HT1B receptor (unknown origin) assessed as inhibition binding at 10 uM relative to control
[5] = molecular target: 5-hydroxytryptamine receptor 7 (Homo sapiens, UniProt P34969); test: Displacement of [3H]LSD from 5-HT7 receptor (unknown origin) assessed as inhibition binding at 10 uM relative to control
[6] = molecular target: 5-hydroxytryptamine receptor 1A (Homo sapiens, UniProt P08908); test: Displacement of [3H]-8-OH-DPAT from 5-HT1A receptor (unknown origin) assessed as inhibition binding
[7] = molecular target: 5-hydroxytryptamine receptor 6 (Homo sapiens, UniProt P50406); test: Displacement of [3H]LSD from 5-HT6 receptor (unknown origin) assessed as inhibition binding
[8] = molecular target: 5-hydroxytryptamine receptor 2C (Homo sapiens) (UniProt P28335); test: Agonist activity at human 5-HT2C receptor expressed in HEK293 cells assessed as maximal IP2 production measured after 30 mins incubation by HTRF assay relative to control; type: functional, cell-based; conditions: filed as agonist
[9] = molecular target: Alpha-2A adrenergic receptor (Homo sapiens, UniProt P08913); test: Agonist activity at human recombinant adrenergic alpha-2A receptor expressed in CHO-K1 cells co-transfected with 22F-Glosensor assessed as inhibition of cAMP production measured after 30 mins incubation by Microbeta2Micro-plate counter analysis; type: functional, cell-based
Mus musculus [10] = test: Psychedelic effect in C57BL/6J mouse assessed as induction of 5-HT2A receptor dependent maximal head-twitch responses by visual observation at 1 mg/kg, sc measured after 24 hrs; type: functional, organism-based
Mus musculus [11] = test: Locomotor activity in C57BL/6J mouse assessed as distance traveled at 1 mg/kg, po measured for 15 to 25 mins (reference value: 1710 +/- 120 cm) by Ethovision tracking system; type: functional; conditions: time 15-25 min
Mus musculus [12] = test: Psychedelic effect in C57BL/6J mouse assessed as number of 5-HT2A receptor dependent head-twitch responses by visual observation at 3 mg/kg, sc measured after 24 hrs; type: functional
[13] = Ex vivo binding in C57BL/6J mouse brain frontal cortex assessed as specific binding [3H]Cimbi-36 at 1 mg/kg, sc measured after 40 mins by liquid scintillation counting analysis (reference value: 1092 +/- 53); type: functional
[14] = Ex vivo binding in C57BL/6J mouse brain frontal cortex assessed as specific binding [3H]Cimbi-36 at 1 mg/kg, sc measured after 220 mins by liquid scintillation counting analysis (reference value: 1092 +/- 53); type: functional; conditions: 3.667 h
[15] = Ex vivo binding in C57BL/6J mouse brain frontal cortex assessed as specific binding [3H]Cimbi-36 at 1 mg/kg, sc measured after 300 mins by liquid scintillation counting analysis (reference value: 1092 +/- 53); type: functional; conditions: 5 h
[16] = Ex vivo binding in C57BL/6J mouse brain frontal cortex assessed as inhibition of [3H]Cimbi-36 binding at 1 mg/kg, sc measured after 10 mins by liquid scintillation counting analysis (reference value: 0%); type: functional
[17] = Ex vivo binding in C57BL/6J mouse brain frontal cortex assessed as inhibition of [3H]Cimbi-36 binding at 1 mg/kg, sc measured after 300 mins by liquid scintillation counting analysis (reference value: 0%); type: functional; conditions: 5 h
Hippocampus [18] = test: Induction of neuroplasticity in C57BL/6J mouse assessed as increase in c-Fos mRNA expression in brain hippocampus at 3 mg/kg, sc single dose by RT-PCR analysis; type: functional, organism-based
Hippocampus [19] = test: Induction of neuroplasticity in C57BL/6J mouse assessed as increase in c-Fos mRNA expression in brain hippocampus at 0.3 mg/kg, sc single dose by RT-PCR analysis; type: functional, organism-based
[20] = Metabolic stability in mouse liver microsomes assessed as half life at 1 uM incubated for 120 mins in presence of NADPH; type: ADME, Microsome
[21] = Metabolic stability in rat liver S9 fractions assessed as half life; type: ADME, subcellular; conditions: liver S9 fraction
[22] = Cmax in Wistar rat plasma at 1 mg/kg, iv measured upto 48 hrs; type: ADME, organism-based
[23] = Half life in Wistar rat plasma at 1 mg/kg, iv measured upto 48 hrs; type: ADME, organism-based
[24] = AUCinf in Wistar rat plasma at 1 mg/kg, iv measured upto 48 hrs; type: ADME, organism-based
[25] = Half life in Wistar rat plasma at 5 mg/kg, po measured upto 48 hrs; type: ADME, organism-based
[26] = Cmax in Wistar rat brain at 5 mg/kg, po measured upto 48 hrs; type: ADME, organism-based
[27] = AUClast in Wistar rat brain at 5 mg/kg, po measured upto 48 hrs; type: ADME, organism-based
[28] = MRTlast in Wistar rat brain at 5 mg/kg, po measured upto 48 hrs; type: ADME, organism-based
[29] = Drug excretion in Wistar rat urine at 1 mg/kg, iv measured upto 48 hrs; type: ADME, organism-based; conditions: read-out: Drug excretion
[30] = AUCinf in male Sprague-Dawley rat plasma at 1 mg/kg, iv measured upto 8 hrs by LC-MS/MS analysis; type: ADME, organism-based
[31] = Volume of distribution at steady state in male Sprague-Dawley rat plasma at 1 mg/kg, iv measured upto 8 hrs by LC-MS/MS analysis; type: ADME, organism-based; conditions: read-out: Vdss
[32] = Half life in male Sprague-Dawley rat CSF at 1 mg/kg, iv measured upto 8 hrs by LC-MS/MS analysis; type: ADME, organism-based, Cerebrospinal fluid
[33] = Initial plasma concentration in beagle dog at 0.4 mg/kg, iv measured upto 24 hrs; type: ADME, organism-based, Canis lupus familiaris
[34] = AUClast in beagle dog at 0.4 mg/kg, iv measured upto 24 hrs; type: ADME, organism-based, Canis lupus familiaris; conditions: in vivo
[35] = Half life in beagle dog at 2 mg/kg, po measured upto 24 hrs; type: ADME, organism-based, Canis lupus familiaris; conditions: in vivo
[36] = AUCinf in beagle dog at 2 mg/kg, po measured upto 24 hrs; type: ADME, organism-based, Canis lupus familiaris; conditions: in vivo
[37] = molecular target: Alpha-2C adrenergic receptor (Homo sapiens, UniProt P18825); test: biochemical
Alpha-2C adrenergic receptor, sequence (P18825 whole entry): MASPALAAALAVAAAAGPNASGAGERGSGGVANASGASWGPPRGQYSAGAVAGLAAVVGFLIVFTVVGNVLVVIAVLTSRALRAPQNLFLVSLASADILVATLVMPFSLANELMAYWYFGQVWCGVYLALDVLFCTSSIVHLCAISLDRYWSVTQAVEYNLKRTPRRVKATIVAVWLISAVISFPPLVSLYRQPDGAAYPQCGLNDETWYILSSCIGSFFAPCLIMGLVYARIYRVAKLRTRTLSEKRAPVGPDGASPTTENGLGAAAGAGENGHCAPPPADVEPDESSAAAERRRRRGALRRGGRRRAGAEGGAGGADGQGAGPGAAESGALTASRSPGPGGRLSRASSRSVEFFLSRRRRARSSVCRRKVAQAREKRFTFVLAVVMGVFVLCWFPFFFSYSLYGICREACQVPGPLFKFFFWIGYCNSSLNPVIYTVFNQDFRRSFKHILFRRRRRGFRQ

5-hydroxytryptamine receptor 2A, sequence (P28223 whole entry): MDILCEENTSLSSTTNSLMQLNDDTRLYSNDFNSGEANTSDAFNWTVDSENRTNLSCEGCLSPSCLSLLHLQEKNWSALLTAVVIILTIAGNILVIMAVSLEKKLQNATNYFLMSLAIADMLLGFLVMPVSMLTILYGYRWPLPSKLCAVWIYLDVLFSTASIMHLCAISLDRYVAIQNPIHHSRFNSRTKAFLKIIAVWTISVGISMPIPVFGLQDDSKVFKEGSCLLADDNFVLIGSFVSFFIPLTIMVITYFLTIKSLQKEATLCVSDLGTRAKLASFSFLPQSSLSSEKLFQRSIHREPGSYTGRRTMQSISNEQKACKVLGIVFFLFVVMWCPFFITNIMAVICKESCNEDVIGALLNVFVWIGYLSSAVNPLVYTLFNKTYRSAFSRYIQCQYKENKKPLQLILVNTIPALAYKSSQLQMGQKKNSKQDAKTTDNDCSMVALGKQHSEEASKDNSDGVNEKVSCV
5-hydroxytryptamine receptor 6, sequence (P50406 whole entry): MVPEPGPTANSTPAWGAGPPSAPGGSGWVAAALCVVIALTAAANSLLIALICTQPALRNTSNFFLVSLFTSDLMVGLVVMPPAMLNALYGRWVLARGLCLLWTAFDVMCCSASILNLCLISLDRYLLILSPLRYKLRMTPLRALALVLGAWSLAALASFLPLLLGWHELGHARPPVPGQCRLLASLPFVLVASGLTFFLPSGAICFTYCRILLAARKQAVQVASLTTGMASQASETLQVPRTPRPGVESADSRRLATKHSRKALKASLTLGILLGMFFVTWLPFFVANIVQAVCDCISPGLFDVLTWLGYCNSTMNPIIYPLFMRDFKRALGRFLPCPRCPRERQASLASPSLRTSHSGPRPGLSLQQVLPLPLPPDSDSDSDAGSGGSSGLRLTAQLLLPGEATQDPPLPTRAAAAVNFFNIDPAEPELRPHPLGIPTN
Alpha-2A adrenergic receptor, sequence (P08913 whole entry): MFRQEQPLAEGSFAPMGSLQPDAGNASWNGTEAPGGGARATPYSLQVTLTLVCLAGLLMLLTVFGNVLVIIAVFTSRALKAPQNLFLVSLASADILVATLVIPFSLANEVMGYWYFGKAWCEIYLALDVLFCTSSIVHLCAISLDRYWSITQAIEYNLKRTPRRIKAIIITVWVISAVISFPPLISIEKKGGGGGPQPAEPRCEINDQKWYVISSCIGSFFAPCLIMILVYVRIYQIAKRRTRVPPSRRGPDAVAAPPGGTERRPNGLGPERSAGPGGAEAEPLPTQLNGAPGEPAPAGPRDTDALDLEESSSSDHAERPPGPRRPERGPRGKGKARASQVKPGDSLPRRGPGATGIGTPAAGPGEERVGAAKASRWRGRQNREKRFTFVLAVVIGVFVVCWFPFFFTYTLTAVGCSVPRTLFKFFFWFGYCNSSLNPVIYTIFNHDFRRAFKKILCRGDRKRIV
5-hydroxytryptamine receptor 1B, sequence (P28222 whole entry): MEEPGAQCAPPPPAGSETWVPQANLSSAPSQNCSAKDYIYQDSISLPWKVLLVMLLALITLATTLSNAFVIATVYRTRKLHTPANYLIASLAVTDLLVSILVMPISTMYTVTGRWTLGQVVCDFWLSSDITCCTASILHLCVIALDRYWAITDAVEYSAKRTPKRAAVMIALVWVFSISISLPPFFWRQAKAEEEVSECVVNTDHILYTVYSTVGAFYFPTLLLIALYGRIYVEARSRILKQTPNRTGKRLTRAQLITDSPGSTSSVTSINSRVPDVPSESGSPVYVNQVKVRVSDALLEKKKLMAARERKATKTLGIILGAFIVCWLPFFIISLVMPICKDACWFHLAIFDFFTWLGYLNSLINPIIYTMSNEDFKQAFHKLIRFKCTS
5-hydroxytryptamine receptor 2C (Homo sapiens), sequence (P28335 whole entry): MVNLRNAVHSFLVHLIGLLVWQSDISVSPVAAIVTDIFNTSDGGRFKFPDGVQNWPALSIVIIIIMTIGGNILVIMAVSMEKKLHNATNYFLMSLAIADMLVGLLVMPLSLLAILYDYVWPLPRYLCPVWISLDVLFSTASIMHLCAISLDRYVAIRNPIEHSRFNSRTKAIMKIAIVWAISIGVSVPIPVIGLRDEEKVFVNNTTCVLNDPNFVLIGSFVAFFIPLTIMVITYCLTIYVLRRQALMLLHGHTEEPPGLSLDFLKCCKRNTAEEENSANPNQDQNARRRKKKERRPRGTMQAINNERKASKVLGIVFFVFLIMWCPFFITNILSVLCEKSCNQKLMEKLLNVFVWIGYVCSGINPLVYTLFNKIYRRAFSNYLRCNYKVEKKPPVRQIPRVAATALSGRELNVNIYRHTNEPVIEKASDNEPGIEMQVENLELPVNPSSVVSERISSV
5-hydroxytryptamine receptor 7, sequence (P34969 whole entry): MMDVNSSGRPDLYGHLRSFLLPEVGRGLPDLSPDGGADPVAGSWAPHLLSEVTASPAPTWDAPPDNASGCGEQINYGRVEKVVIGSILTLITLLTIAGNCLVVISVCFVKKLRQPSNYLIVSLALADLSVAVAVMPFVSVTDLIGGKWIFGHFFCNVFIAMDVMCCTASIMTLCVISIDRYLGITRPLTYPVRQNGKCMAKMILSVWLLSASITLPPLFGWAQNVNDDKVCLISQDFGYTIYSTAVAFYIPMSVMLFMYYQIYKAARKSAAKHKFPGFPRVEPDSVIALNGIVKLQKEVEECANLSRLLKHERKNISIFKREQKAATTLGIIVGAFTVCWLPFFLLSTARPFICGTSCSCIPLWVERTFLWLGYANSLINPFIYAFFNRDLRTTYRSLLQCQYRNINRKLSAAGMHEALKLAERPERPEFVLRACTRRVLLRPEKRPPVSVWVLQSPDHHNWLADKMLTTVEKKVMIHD
5-hydroxytryptamine receptor 1A, sequence (P08908 whole entry): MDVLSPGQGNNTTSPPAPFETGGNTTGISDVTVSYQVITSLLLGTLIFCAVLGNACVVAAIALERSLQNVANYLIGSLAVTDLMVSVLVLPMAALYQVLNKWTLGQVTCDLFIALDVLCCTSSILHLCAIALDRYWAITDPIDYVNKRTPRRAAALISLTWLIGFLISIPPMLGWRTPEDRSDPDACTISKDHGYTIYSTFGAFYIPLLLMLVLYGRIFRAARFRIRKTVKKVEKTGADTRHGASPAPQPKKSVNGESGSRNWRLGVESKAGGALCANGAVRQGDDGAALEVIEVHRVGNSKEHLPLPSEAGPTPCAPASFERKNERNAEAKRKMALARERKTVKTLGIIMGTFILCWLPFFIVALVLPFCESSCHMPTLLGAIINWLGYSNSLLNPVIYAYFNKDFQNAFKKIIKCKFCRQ
5-hydroxytryptamine receptor 2B, sequence (P41595 whole entry): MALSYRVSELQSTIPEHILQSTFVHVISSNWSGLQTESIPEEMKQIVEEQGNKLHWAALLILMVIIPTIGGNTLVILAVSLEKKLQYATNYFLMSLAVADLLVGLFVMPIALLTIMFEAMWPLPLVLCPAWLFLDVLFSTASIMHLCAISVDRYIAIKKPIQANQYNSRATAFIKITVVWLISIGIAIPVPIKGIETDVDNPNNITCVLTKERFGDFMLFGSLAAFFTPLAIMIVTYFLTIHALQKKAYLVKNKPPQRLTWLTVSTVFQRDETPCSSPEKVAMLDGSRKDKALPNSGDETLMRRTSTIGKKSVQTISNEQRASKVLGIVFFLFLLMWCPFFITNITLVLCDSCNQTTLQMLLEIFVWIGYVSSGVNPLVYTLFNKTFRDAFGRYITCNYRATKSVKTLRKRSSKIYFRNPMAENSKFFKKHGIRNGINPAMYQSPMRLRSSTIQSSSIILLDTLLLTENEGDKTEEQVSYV

`COc1cc([Se]C(F)(F)F)c(OC)cc1CCN.Cl` showed a Ki ([1]; read-out: Ki) of 3.2 nM, a Ki ([1]; read-out: pKi (converted)) of 3.02 nM and a Ki [2] of 14 nM. The Activity (Mus musculus [3]) was 29, the inhibition [4] was 83% and the inhibition [5] was 86%. It also gave a Ki [6] of 32 nM, a Ki [7] of 1300 nM and an Emax [8] of 91%. For the same molecule, the EC50 [9] was 126 nM, the Activity (Mus musculus [10]) was “inactive” and the Activity (Mus musculus [11]) was 2602 cm. It also gave an Activity (Mus musculus [12]) of 25, an Activity [13] of 732 and an Activity [14] of 796. For the same molecule, the Activity [15] was 857, the inhibition in vivo at 1 mg/kg [16] was 9% and the inhibition in vivo at 1 mg/kg [17] was 22%. The Activity (Hippocampus [18]) was “inactive”, the Activity (Hippocampus [19]) was “inactive” and the half-life at 1 µM [20] was > 2 h. It also gave a half-life [21] of 1.27 h, a Cmax [22] of 54.1 ng/mL and a half-life [23] of 0.78 h. The AUC(0-inf) [24] was 50.7 ng·h/mL, the half-life [25] was 3.53 h and the Cmax [26] was 402 ng/mL. The AUC(0-t) at 48 h [27] was 1860 ng·h/mL, the MRT last at 48 h [28] was 3.3 h and the dose excreted at 48 h [29] was 0.07%. For the same molecule, the AUC(0-inf) [30] was 210 ng·h/mL, the Vd [31] was 5.67 L/kg and the half-life [32] was 1.26 h. The C0 at 24 h [33] was 121 ng/mL, the AUC(0-t) at 24 h [34] was 366 ng·h/mL and the half-life [35] was 6.78 h. The AUC(0-inf) [36] was 2970 ng·h/mL and the Ki [37] was 108 nM.
